The values below come from ChEMBL document CHEMBL5604063, “ASAP - DENV-2 NS2B-NS3 protease fluorescence dose response” (2024).

Assay [1] concerns the target T1, Genome polyprotein (dengue virus type 2, UniProt P29990). In kind it is functional, Thailand/16681/1984.
Assay [2] deals with T1, Genome polyprotein. In kind it is functional, Thailand/16681/1984. This is another data set of the same source.

Each structure is given as a SMILES string. Where “and” joins values, the source holds several entries; their conditions need not be identical. Equal values may be shown once.

T1 sequence (P29990 1346-1475 limits assumed): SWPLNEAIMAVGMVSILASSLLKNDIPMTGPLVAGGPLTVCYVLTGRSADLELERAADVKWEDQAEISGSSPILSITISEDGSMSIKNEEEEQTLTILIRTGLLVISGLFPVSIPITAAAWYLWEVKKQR
T1 sequence (P29990 1476-2093 limits assumed): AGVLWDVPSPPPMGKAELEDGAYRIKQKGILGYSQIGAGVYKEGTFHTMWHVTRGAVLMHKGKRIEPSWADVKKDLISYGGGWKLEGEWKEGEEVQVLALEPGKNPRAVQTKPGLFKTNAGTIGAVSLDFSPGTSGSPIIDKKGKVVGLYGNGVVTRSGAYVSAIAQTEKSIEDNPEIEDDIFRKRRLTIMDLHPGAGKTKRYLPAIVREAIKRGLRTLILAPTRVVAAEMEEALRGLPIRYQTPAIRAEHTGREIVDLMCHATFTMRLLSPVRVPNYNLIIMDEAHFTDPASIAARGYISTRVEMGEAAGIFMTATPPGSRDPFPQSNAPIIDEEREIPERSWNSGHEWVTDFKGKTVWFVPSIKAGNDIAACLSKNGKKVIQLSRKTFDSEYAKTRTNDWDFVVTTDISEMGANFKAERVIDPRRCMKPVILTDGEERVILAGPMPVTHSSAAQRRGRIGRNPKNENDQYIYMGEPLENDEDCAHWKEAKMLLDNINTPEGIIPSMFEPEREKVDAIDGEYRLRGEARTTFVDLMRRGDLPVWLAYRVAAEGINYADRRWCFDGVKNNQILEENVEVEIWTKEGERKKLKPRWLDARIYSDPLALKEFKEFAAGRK

Usually IC50 stands for the concentration at which inhibition is half-maximal. High values mean lower potency, low ones higher potency. Turning to `C[C@H](CC(=O)O)N(C)C(=O)c1cc(Cl)cc(NC(=O)OCc2ccccc2)c1`, the IC50 on Genome polyprotein [1] was above 99.5 µM; on Genome polyprotein [2], above 100 µM.
`Clc1ccc2[nH]cc(Cc3ccc(-c4nn[nH]n4)cc3)c2c1`: the IC50 worked out at 58.7 µM at Genome polyprotein [1] and 16.4 µM against Genome polyprotein [2].
Take `C[C@H](CC(=O)O)NC(=O)c1cc(Cl)cc(NC(=O)OCc2ccccc2)c1`: the IC50 against Genome polyprotein [1] is above 99.5 µM; against Genome polyprotein [2], above 100 µM.
The matching figures for `CCc1sc(C(=O)Nc2cccc(-c3nnn[nH]3)c2)cc1C`: above 99.5 µM and above 100 µM.
On the same counts, the results for `O=C(O)CCc1ccc(NC(=O)c2cc(Cl)cc(C3CC3)c2)cc1` are above 99.5 µM and above 100 µM.
On to `CC(C)C[C@H](NC(=O)c1cc(Cl)cc(NC(=O)OCc2ccccc2)c1)c1nnn[nH]1`, for which the IC50 against Genome polyprotein [1] was found to be 74.6 µM; on Genome polyprotein [2] it was 28.3 µM.
The matching figures for `O=C(Nc1cc(Cl)cc(C(=O)Nc2ccccc2[C@@H]2C[C@H]2C(=O)O)c1)OCc1ccccc1`: above 99.5 µM and above 100 µM.
On the same counts, the results for `NCc1cc(C(=O)N[C@H]2CCCOC2)cc([C@@H]2C[C@H]2c2cc(Cl)cc(NC(=O)OCc3ccccc3)c2)c1` are above 99.5 µM and above 100 µM.
Regarding `O=C(Nc1cc(Cl)cc(C(=O)NC[C@H]2C[C@@H]2C(=O)O)c1)OCc1ccccc1`, the figures for the IC50 against Genome polyprotein [1] and on Genome polyprotein [2] were above 99.5 µM and above 100 µM, respectively.
For `O=C(Nc1cc(Cl)cc(C(=O)NCc2ccc(-c3nnn[nH]3)cc2)c1)OCc1ccccc1`, the IC50 against Genome polyprotein [1] was 21 µM; on Genome polyprotein [2], 11.7 µM and 9.92 µM.
Turning to `CC(C)(C)NC(=O)[C@H](Nc1cccc(-c2nn[nH]n2)c1)c1cc(Cl)cc(NC(=O)OCc2ccccc2)c1`, the IC50 against Genome polyprotein [1] is 11.3 µM; against Genome polyprotein [2] it was 7.15 µM and 7.59 µM.
`O=C(Nc1cc(Cl)cc(C(=O)N2CCC[C@H]2c2nnn[nH]2)c1)OCc1ccccc1`: the 50% inhibitory concentration (IC50) against Genome polyprotein [1] is above 99.5 µM; against Genome polyprotein [2], above 100 µM.
Turning to `C=CC[C@H](Nc1ccc(-c2nn[nH]n2)cc1)c1cc(Cl)cc(NC(=O)OCc2ccccc2)c1`, the IC50 on Genome polyprotein [1] is 6.6 µM; on Genome polyprotein [2], 5.41 µM and 5.49 µM.
In the case of `NCc1cc(C(=O)N2CCNC(=O)C2)cc([C@@H]2C[C@H]2c2cc(Cl)cc(NC(=O)OCc3ccccc3)c2)c1`, the IC50 on Genome polyprotein [1] was 49.1 µM; against Genome polyprotein [2] it was above 100 µM.
The matching figures for `O=C(O)c1cccc(NC(=O)c2cc(Cl)cc3[nH]ncc23)c1`: above 99.5 µM and above 100 µM.
With `O=C(Nc1cc(Cl)cc([C@H]2CN(Cc3ccccc3)C[C@@H]2c2cccc(-c3nn[nH]n3)c2)c1)OCc1ccccc1`, the IC50 on Genome polyprotein [1] is 6.12 µM; against Genome polyprotein [2], 5.87 µM and 5.96 µM.
As to `CCCNC(=O)[C@H](Nc1cccc(-c2nn[nH]n2)c1)c1cc(Cl)cc(NC(=O)OCc2ccccc2)c1`, the IC50 was 17.3 µM on Genome polyprotein [1]; 9.41 µM and 9.81 µM against Genome polyprotein [2].
Turning to `CC(C)NC(=O)[C@H](Nc1cccc(-c2nn[nH]n2)c1)c1cc(Cl)cc(NC(=O)OCc2ccccc2)c1`, the results for the IC50 against Genome polyprotein [1] and against Genome polyprotein [2] were 21.5 µM and 12.2 µM, respectively.
The matching figures for `O=C(Nc1cc(Cl)cc(C(=O)N2CCC(c3nn[nH]n3)CC2)c1)OCc1ccccc1`: above 99.5 µM and above 100 µM.
Turning to `CS(=O)(=O)c1cc(CN)cc([C@@H]2C[C@H]2c2cc(Cl)cc(NC(=O)OCc3ccccc3)c2)c1`, the IC50 was above 99.5 µM against Genome polyprotein [1] and above 100 µM against Genome polyprotein [2].
With `CCc1[nH]c(-c2ccccc2)cc1C(=O)Nc1cccc(-c2nnn[nH]2)c1`, the results for the IC50 against Genome polyprotein [1] and at Genome polyprotein [2] were above 99.5 µM and 33.1 µM, respectively.
On the same counts, the results for `CN(C)C(=O)c1cc(CN)cc([C@@H]2C[C@H]2c2cc(Cl)cc(NC(=O)OCc3ccccc3)c2)c1` are 31.6 µM and above 100 µM.
For the compound `CS(=O)(=O)NC(=O)c1cc(CN)cc(NC(=O)c2cc(Cl)cc(NC(=O)OCc3ccccc3)c2)c1`, the results for the IC50 on Genome polyprotein [1] and at Genome polyprotein [2] were above 99.5 µM and above 100 µM, respectively.
For `CC(=Cc1cc(Cl)cc(NC(=O)OCc2ccccc2)c1)c1cccc(CN)c1`, the results for the IC50 against Genome polyprotein [1] and at Genome polyprotein [2] were 23.4 µM and above 100 µM, respectively.
In the case of `C#C[C@H](Nc1cccc(C(=O)O)c1)c1cc(Cl)cc2[nH]ncc12`, the IC50 was above 99.5 µM against Genome polyprotein [1] and above 100 µM at Genome polyprotein [2].
The matching figures for `CCc1cc(C(=O)Nc2cccc(-c3nnn[nH]3)c2)ccc1Cl`: above 99.5 µM and 67.2 µM.
On the same counts, the results for `C[C@H](NC(=O)c1cc(Cl)cc(NC(=O)OCc2ccccc2)c1)C(=O)O` are above 99.5 µM and above 100 µM.
The matching figures for `O=C(Nc1ccc(-n2nn[nH]c2=O)cc1)c1cc(Cl)cc(C2CC2)c1`: above 99.5 µM and 62.2 µM.
As for `Cc1c(C(=O)Nc2cccc(-c3nnn[nH]3)c2)n[nH]c1-c1ccc(Cl)cc1`, the IC50 against Genome polyprotein [1] worked out at 42 µM; against Genome polyprotein [2], 18.2 µM.
On the same counts, the results for `COC[C@H](NC(=O)c1cc(Cl)cc(NC(=O)OCc2ccccc2)c1)c1nnn[nH]1` are above 99.5 µM and above 100 µM.
With `CC(C)[C@H](NC(=O)c1cc(Cl)cc(NC(=O)OCc2ccccc2)c1)C(=O)O`, the IC50 against Genome polyprotein [1] is above 99.5 µM; on Genome polyprotein [2], above 100 µM.
In the case of `CNC(=O)[C@H](Nc1ccc(-c2nnn[nH]2)cc1)c1cc(Cl)cc(C2CC2)c1`, the IC50 is above 99.5 µM on Genome polyprotein [1] and above 100 µM against Genome polyprotein [2].
The matching figures for `O=C(Nc1cc(Cl)cc(C(=O)N2CCC[C@H](c3nnn[nH]3)C2)c1)OCc1ccccc1`: above 99.5 µM and above 100 µM.
`O=C(Nc1cc(Cl)cc([C@H](Nc2cccc(-c3nn[nH]n3)c2)C(=O)NCc2ccccc2)c1)OCc1ccccc1`: the IC50 is 8.05 µM on Genome polyprotein [1]; 7.11 µM and 6.42 µM against Genome polyprotein [2].
On to `C=CC[C@H](Nc1cc(Cl)cc(NC(=O)OCc2ccccc2)c1)c1cccc(CN)c1`, for which the IC50 was 37.5 µM against Genome polyprotein [1] and above 100 µM at Genome polyprotein [2].
On to `O=C(Nc1cccc(-c2nnn[nH]2)c1)c1ccc(-c2cccnc2)s1`, for which the IC50 was above 99.5 µM on Genome polyprotein [1] and above 100 µM at Genome polyprotein [2].
The matching figures for `CCOC(=O)[C@H]1[C@H](c2cc(Cl)cc(NC(=O)OCc3ccccc3)c2)[C@H]1c1cccc(-c2nnn[nH]2)c1`: 13.1 µM and 13.9 µM.
On the same counts, the results for `O=C(Nc1cc(Cl)cc(C(=O)Nc2cccc3c2OC[C@H](C(=O)O)C3)c1)OCc1ccccc1` are 50.4 µM and 19.1 µM.
On the same counts, the results for `NCc1cc(C(=O)N2CCOCC2)cc([C@@H]2C[C@H]2c2cc(Cl)cc(NC(=O)OCc3ccccc3)c2)c1` are 44.5 µM and above 100 µM.
As to `NCc1cc(/C=C/C(=O)O)cc(NC(=O)c2cc(Cl)cc(NC(=O)OCc3ccccc3)c2)c1`, the IC50 is 94.6 µM against Genome polyprotein [1] and above 100 µM against Genome polyprotein [2].
On the same counts, the results for `CCOC(=O)[C@H]1[C@H](c2cccc(CN)c2)[C@H]1c1cc(Cl)cc(NC(=O)OCc2ccccc2)c1` are above 99.5 µM and above 100 µM.
Consider `C=CC[C@H](Nc1cccc(C(=O)O)c1)c1cc(Cl)cc2[nH]ncc12`, for which the IC50 against Genome polyprotein [1] is above 99.5 µM; at Genome polyprotein [2], above 100 µM.
Take `Clc1ccc2[nH]cc(Cc3cccc(-c4nn[nH]n4)c3)c2c1`: the IC50 at Genome polyprotein [1] worked out at 63.1 µM; against Genome polyprotein [2] it was 22.4 µM.
`C=CC[C@H](Nc1cc(Cl)cc(NC(=O)OCc2ccccc2)c1)c1ccc(-c2nn[nH]n2)cc1`: the IC50 at Genome polyprotein [1] is 7.02 µM; on Genome polyprotein [2], 5.69 µM and 5.81 µM.
For `CC(C)CNC(=O)[C@H](Nc1cccc(-c2nn[nH]n2)c1)c1cc(Cl)cc(NC(=O)OCc2ccccc2)c1`, the IC50 is 12.7 µM at Genome polyprotein [1]; 9.91 µM and 9.02 µM against Genome polyprotein [2].
As to `O=C(Nc1cc(Cl)cc(C(=O)NCC[C@H]2C[C@@H]2C(=O)O)c1)OCc1ccccc1`, the results for the IC50 against Genome polyprotein [1] and against Genome polyprotein [2] were above 99.5 µM and above 100 µM, respectively.
`O=C(Nc1cccc(-n2nn[nH]c2=O)c1)c1cc(Cl)cc(C2CC2)c1`: the IC50 was found to be 98.7 µM against Genome polyprotein [1] and 50.1 µM against Genome polyprotein [2].
In the case of `CCCc1sc(C(=O)Nc2cccc(-c3nnn[nH]3)c2)cc1CC`, the IC50 on Genome polyprotein [1] was 45.8 µM; against Genome polyprotein [2], 19 µM and 20.6 µM.
As to `O=C(Nc1cc(Cl)cc(C(=O)Nc2cncc(C(=O)O)c2)c1)OCc1ccccc1`, the IC50 against Genome polyprotein [1] is 70 µM; at Genome polyprotein [2], 32.1 µM and 27.5 µM.
Consider `NCc1cc(CO)cc([C@H]2C[C@@H]2c2cc(Cl)cc(NC(=O)OCc3ccccc3)c2)c1`, for which the IC50 at Genome polyprotein [1] is 29.7 µM; against Genome polyprotein [2], above 100 µM.
The matching figures for `O=C(Nc1cc(Cl)cc(-c2ccn3c(C(=O)O)cnc3c2)c1)OCc1ccccc1`: above 99.5 µM and 13.6 µM.
Regarding `O=C(O)Cn1ncc2cc(-c3cc(Cl)cc(NC(=O)OCc4ccccc4)c3)ccc21`, the IC50 on Genome polyprotein [1] is 20.8 µM; against Genome polyprotein [2], 10.7 µM and 11 µM.
In the case of `CCc1nc(C)c(C(=O)Nc2cccc(-c3nnn[nH]3)c2)s1`, the IC50 at Genome polyprotein [1] was above 99.5 µM; against Genome polyprotein [2], above 100 µM.
For the compound `O=C(Nc1cc(Cl)cc(-c2ccc3nc(C(=O)O)ncc3c2)c1)OCc1ccccc1`, the IC50 on Genome polyprotein [1] was 11.4 µM; against Genome polyprotein [2], 11.6 µM and 12.4 µM.
Take `CC(=Cc1cccc(CN)c1)c1cc(Cl)cc(NC(=O)OCc2ccccc2)c1`: the IC50 is 63.2 µM against Genome polyprotein [1] and above 100 µM against Genome polyprotein [2].
On the same counts, the results for `CS(=O)(=O)NC(=O)c1cc(CN)cc([C@@H]2C[C@H]2c2cc(Cl)cc(NC(=O)OCc3ccccc3)c2)c1` are above 99.5 µM and above 100 µM.
Consider `O=C(Nc1cc(Cl)cc(C(=O)Nc2cc(C(=O)O)ccn2)c1)OCc1ccccc1`, for which the IC50 is above 99.5 µM against Genome polyprotein [1] and 35.6 µM against Genome polyprotein [2].
On the same counts, the results for `CNC(=O)[C@H](Nc1cc(Cl)cc(NC(=O)OCc2ccccc2)c1)c1ccc(-c2nn[nH]n2)cc1` are 45.6 µM and 19.2 µM.
Take `CC(=Cc1cccc(-c2nnn[nH]2)c1)c1cc(Cl)cc(NC(=O)OCc2ccccc2)c1`: the IC50 is 9.44 µM at Genome polyprotein [1]; 8.82 µM and 11.8 µM against Genome polyprotein [2].
Consider `CCc1cc(C(=O)Nc2cccc(-c3nnn[nH]3)c2)sc1C`, for which the IC50 against Genome polyprotein [1] was above 99.5 µM; at Genome polyprotein [2], above 100 µM.
The matching figures for `O=C(Nc1cc(Cl)cc(N[C@H](C#CCO)c2ccc(-c3nn[nH]n3)cc2)c1)OCc1ccccc1`: 26.4 µM and 11.7 µM.
The matching figures for `CNC(=O)[C@H](Nc1ccc(-c2nn[nH]n2)cc1)c1cc(Cl)cc(NC(=O)OCc2ccccc2)c1`: 50 µM and 40.7 µM.
On the same counts, the results for `CCc1cc(C(=O)Nc2cccc(-c3nnn[nH]3)c2)nn1-c1ccccc1` are above 99.5 µM and above 100 µM.
